Measurements as given in patent US8029764B2, “Methods for detection of colorectal cancer” (The Johns Hopkins University, priority 2001, dated 2011).

Test system: colorectal tissue transcripts
Assay: SAGE of normal, adenoma and cancer colorectal tissue (transcript tag counts)
Set-up: species or system human
Conditions: for AD1 (SAGE tag count): SAGE library AD1; for AD2 (SAGE tag count): SAGE library AD2; for CA1 (SAGE tag count): SAGE library CA1; for CA2 (SAGE tag count): SAGE library CA2; for NC1 (SAGE tag count): SAGE library NC1; for NC2 (SAGE tag count): SAGE library NC2
In short: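 Tag counts reflect transcript abundance, each mRNA represented by a 15-base tag near its 3′ end. Excluding MHC tags, linkers and duplicate ditags, libraries were compared statistically: two each of normal epithelium, FAP-derived adenomas (>70% neoplastic) and carcinomas.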

| Sequence | AD1 (SAGE tag count) | AD2 (SAGE tag count) | CA1 (SAGE tag count) | CA2 (SAGE tag count) | NC1 (SAGE tag count) | NC2 (SAGE tag count) |
| --- | --- | --- | --- | --- | --- | --- |
| CTGACCTGTG (chemistry not fully specified) | 48 | 18 | 16 | 46 | 88 | 130 |
| CTGGATCTGG (chemistry not fully specified; the letters are possibly those of the target site) | 3 | 9 | 5 | 10 | 21 | 21 |
| CTGGCAAAGG (chemistry not fully specified) | 1 | 0 | 0 | 0 | 14 | 22 |
| CTGGCCCTCG (chemistry not fully specified) | 1 | 3 | 15 | 14 | 186 | 52 |
| CTGGCTATCC (chemistry not fully specified) | 0 | 0 | 0 | 1 | 7 | 3 |
| CTGGGCCTCT (chemistry not fully specified) | 2 | 2 | 3 | 3 | 22 | 22 |
| CTGTACTTGT (chemistry not fully specified) | 1 | 1 | 0 | 0 | 9 | 5 |
| CTGTGTGGCT (chemistry not fully specified; the letters are possibly those of the target site) | 1 | 0 | 0 | 0 | 0 | 12 |
| CTTACAAGCA (chemistry not fully specified) | 2 | 3 | 4 | 3 | 21 | 13 |
| CTTAGAGGGG (chemistry not fully specified) | 0 | 1 | 1 | 1 | 16 | 22 |
| CTTATGGTCC (chemistry not fully specified) | 0 | 1 | 1 | 0 | 36 | 11 |
| CTTCCAGCTA (chemistry not fully specified) | 22 | 20 | 14 | 19 | 64 | 31 |
| CTTCTTGCCC (chemistry not fully specified) | 2 | 2 | 0 | 1 | 29 | 2 |
| CTTGACATAC (chemistry not fully specified) | 4 | 4 | 0 | 0 | 18 | 20 |
| CTTGATTCCC (chemistry not fully specified) | 5 | 0 | 2 | 5 | 26 | 9 |
| GACATCAAGT (chemistry not fully specified) | 23 | 14 | 47 | 17 | 198 | 87 |
| GACCAGCCCA (chemistry not fully specified) | 3 | 2 | 12 | 5 | 23 | 21 |
| GACCAGTGGC (chemistry not fully specified) | 4 | 0 | 2 | 0 | 21 | 44 |
| GACGCGGCGC (chemistry not fully specified) | 10 | 17 | 12 | 17 | 30 | 47 |
| GAGAGCTCCC (chemistry not fully specified) | 3 | 0 | 2 | 1 | 5 | 11 |
| GAGCACCGTG (chemistry not fully specified) | 1 | 0 | 0 | 1 | 7 | 4 |
| GATATGTAAA (chemistry not fully specified) | 0 | 0 | 0 | 0 | 1 | 10 |
| GATCCCAACT (chemistry not fully specified) | 5 | 7 | 1 | 1 | 9 | 29 |
| GATGAATCCG (chemistry not fully specified) | 2 | 2 | 1 | 2 | 12 | 14 |
| GATGACCCCC (chemistry not fully specified) | 4 | 3 | 3 | 3 | 42 | 49 |
| GCAAGAAAGT (chemistry not fully specified) | 0 | 4 | 0 | 1 | 48 | 0 |
| GCACAGGTCA (chemistry not fully specified) | 1 | 0 | 1 | 1 | 5 | 9 |
| GCACCCTTTC (chemistry not fully specified) | 0 | 0 | 1 | 0 | 13 | 5 |
| GCACCTGTCG (chemistry not fully specified) | 0 | 0 | 1 | 0 | 2 | 9 |
